According to US20210293825A1, “METHODS FOR PRECISION THERAPEUTIC TARGETING OF HUMAN CANCER CELL MOTILITY AND KITS THEREOF” (UNITED STATES GOVERNMENT AS REPRESENTED BY THE DEPARTMENT …, priority 2018, published 2021):

Assays:
[1] = biological target: T1, MKK4 (Homo sapiens, UniProt P45985, S257E/T261E); experiment: MKK4 in vitro kinase assay; type: biochemical; conditions: phosphorylation of kinase dead p38a MAPK
T1 sequence (P45985 37-399 S257E/T261E): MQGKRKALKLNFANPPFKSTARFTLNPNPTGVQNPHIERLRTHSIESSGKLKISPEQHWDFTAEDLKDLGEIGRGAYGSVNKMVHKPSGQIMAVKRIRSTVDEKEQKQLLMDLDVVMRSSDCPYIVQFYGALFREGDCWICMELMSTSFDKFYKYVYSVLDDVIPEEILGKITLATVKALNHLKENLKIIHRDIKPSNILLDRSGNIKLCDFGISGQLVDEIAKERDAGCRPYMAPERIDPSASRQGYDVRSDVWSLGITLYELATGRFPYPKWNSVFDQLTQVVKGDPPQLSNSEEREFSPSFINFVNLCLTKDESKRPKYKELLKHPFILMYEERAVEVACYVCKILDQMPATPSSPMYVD
Method: FIG. 16a is a depiction of established MKK4 pathway regulating human PCa cell metastasis. […] Values are the mean±SD (of N=2 replicates) increase in melting temperature (ΔTm) of purified recombinant MKK4 induced by the indicated concentrations of KBU2046 or genistein. […] The indicated concentrations of KBU2046 were added to recombinant activated MKK4, and its ability to phosphorylate kinase dead p38a MAPK (K53A) was measured by Western blot for total (p38 MAPK) and phosphorylated (pp38 MAPK) forms of p38 MAPK. […] PC3-M cells were pre-treated for 24 hours with 50 μM KBU2046 or genistein, as indicated, then with TGFβ, and Western blot performed. These findings are from a single experiment, with similar findings in identical separate experiments, repeated at least once.
In Vitro Kinase Assays. MEK4/MKK4/MAP2K4 in vitro kinase assay was performed as described (Krishna, S. N. et al., PLoS One 8, e81504 (2013)). HSP90β/CDC37 heterocomplex kinase assays with RAF1, SGK3 and MAP3K6 assays incubated indicated proteins in 20 mM MOPS, pH 7.2, 25 mM β-glycerol phosphate, 5 mM EGTA, 1 mM sodium orthovanadate, 1 mM dithiothreitol, 0.25 mM ATP and 37.5 mM MgCl2 at 30° C. for the indicated times.

[2] = biological target: T2, RAF1 with HSP90β and CDC37 (Homo sapiens, UniProt P08238+Q16543); experiment: HSP90β/CDC37 heterocomplex in vitro kinase assay with RAF1; type: biochemical; conditions: purified recombinant RAF1, HSP90β and CDC37
T2 construct: host or cells: E. coli for HSP90β and CDC37
Method: HEK293T cells were transfected with 1 of 420 different protein kinases, treated with 10 μM KBU2046 (N=5 replicates) or vehicle control (N=5) for three days, and LUMIER assays performed. The N=17 kinases that gave significant findings (Student's t-test <0.05) in the same direction in each of two separate experiments are depicted. Each separate treatment and kinase condition in each of two separate experiments was conducted in replicates of N=5. […] FIGS. 6c and 6d show the results of the wound healing assay. PC3 cells were transfected with siRNA targeting RAF1 (si-Raf1) or non-targeting siRNA (si-control), treated with KBU2046 or vehicle as above, and RAF1 protein measured by Western blot (c) and effects upon wound healing measured (d). […] Purified recombinant HSP90β, CDC37, and RAF1 were combined with KBU2046, as indicated, incubated in an in vitro kinase assay for the indicated times, and Western blot for RAF1-Ser^338 phosphorylation performed. FIGS. 6f and 6g show the effect on HSP90β/CDC37 heterocomplex formation and function in vitro. Purified recombinant HSP90β, CDC37, RAF1, SGK3 or MAP3K6 were combined and treated with KBU2046 or vehicle control, as indicated, incubated in an in vitro kinase assay for the indicated times, and Western blot performed, as denoted. Experiments were repeated at separate times at least once, with similar results. […]

[3] = system: RAF1 in PC3 and PC3-M cells; experiment: RAF1-Ser338 phosphorylation in prostate cancer cells (Western blot); type: cell-based, human; conditions: 10 μM
Method: PC3 and PC3-M human prostate cancer cells were treated with 10 μM KBU2046 for the indicated lengths of time; control cells (C) were treated with vehicle. Levels of RAF1-Ser^338 phosphorylation (pRaf1), total RAF1, and GAPDH proteins were then measured by Western blot.

T2 sequence (P08238 whole entry): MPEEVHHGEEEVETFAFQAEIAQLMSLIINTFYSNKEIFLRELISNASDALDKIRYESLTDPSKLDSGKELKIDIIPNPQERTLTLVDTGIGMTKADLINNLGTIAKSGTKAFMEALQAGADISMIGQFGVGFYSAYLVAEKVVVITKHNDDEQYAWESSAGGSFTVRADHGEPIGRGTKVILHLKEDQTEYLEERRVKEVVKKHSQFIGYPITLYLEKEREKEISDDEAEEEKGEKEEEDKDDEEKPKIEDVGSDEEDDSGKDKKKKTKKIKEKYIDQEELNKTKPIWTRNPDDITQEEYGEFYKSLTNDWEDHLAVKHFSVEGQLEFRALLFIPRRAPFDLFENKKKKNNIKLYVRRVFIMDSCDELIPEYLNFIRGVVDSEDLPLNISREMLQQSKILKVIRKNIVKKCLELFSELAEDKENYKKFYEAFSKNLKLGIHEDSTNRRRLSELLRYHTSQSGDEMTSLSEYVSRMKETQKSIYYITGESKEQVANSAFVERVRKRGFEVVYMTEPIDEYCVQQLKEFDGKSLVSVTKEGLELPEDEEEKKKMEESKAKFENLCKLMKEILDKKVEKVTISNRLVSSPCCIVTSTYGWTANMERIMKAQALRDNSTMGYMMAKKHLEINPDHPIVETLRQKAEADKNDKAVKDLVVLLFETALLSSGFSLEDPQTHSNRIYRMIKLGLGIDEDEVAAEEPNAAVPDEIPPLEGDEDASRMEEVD
T2 sequence (Q16543 whole entry): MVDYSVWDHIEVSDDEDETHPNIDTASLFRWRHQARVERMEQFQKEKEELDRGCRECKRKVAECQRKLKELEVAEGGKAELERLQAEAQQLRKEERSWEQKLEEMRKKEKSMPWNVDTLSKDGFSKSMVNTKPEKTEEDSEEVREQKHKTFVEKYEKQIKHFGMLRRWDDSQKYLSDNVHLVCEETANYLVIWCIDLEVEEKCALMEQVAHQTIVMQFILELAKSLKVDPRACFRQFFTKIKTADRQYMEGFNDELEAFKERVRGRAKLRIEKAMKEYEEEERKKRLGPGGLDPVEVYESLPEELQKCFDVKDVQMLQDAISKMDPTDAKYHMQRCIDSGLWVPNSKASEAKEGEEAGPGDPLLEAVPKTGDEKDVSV

O=C1c2ccccc2OCC1c1ccc(F)cc1 (racemic) [KBU2046, (±)-3(4-fluorophenyl)chroman-4-one]
inhibition of MKK4 kinase activity [1]: does not inhibit MKK4 | phosphorylation of RAF1 Ser338 activation motif [2]: decreased phosphorylation of RAF1's Ser338 activation motif | levels of phospho-RAF1 [3]: decreased levels of phospho-RAF1 in a time-dependent manner
